The results in this text go back to patent publication US20230287066A1, “MATERIALS AND METHODS FOR MAKING SEXUAL STAGE […]” (The Penn State Research Foundation, priority 2020, published 2023).

The subject of assay [1] is P. falciparum expressing a regulatable AP2-G polypeptide and having a reduced level of histone modification at the 3′ pairing element of the pfap2-g locus. Briefly: Gametocytogenesis (percentage sexual conversion) of engineered parasites treated with Shld1. The format is cell-based, Plasmodium falciparum. The following applies: in the presence of a Shld1 molecule; 3′ pairing element mutant AP2-G-HA-FKBP parasites. How it is done: The number of gametocytes was determined by splitting the culture in two and treating half with Shld1 and half with the same volume of the vehicle (Day 1). The parental cell line (AP2-G-HA-FKBP) and the pairing element mutant were tested in parallel. After 48 hours (on Day 3), the number of parasites present was counted by microscopy and N-acetylglucosamine was added to all cultures to specifically kill asexual parasites. On Day 9, when gametocytes developed enough that they were readily distinguished from asexual stage parasites by morphology, the number of gametocytes were counted by microscopy. Percentage sexual conversion was calculated by dividing this by the proportion of parasite-infected red blood cells on Day 3.

The subject of assay [2] is AP2-G-HA-FKBP polypeptide. Put plainly: Conditional knockdown of PfAP2-G fused to FKBP destabilization domain. The assay is classed as cell-based, Plasmodium falciparum. The following applies: in the presence of Shld1; AP2-G-HA-FKBP parasites (FIG. 1). From the text:
A regulatable knockdown of PfAP2-G was generated by engineering a transgenic line with AP2-G fused to an FKBP destabilization domain (DD) as described elsewhere (see, e.g., Kafsack et al., Nature, 507(7491):248-52 (2014)). Briefly, a construct encoding an AP2-G polypeptide fused to an HA-tag and an FKBP DD (e.g., an AP2-G-HA-FKBP polypeptide) was stably integrated into the genome of Plasmodium falciparum lines.
In the absence of the ligand Shield-1 (Shld1), the FKBP destabilization domain was unstable and targets fusion proteins for proteolytic degradation.

As to `CC[C@H](C(=O)N1CCCC[C@H]1C(=O)O[C@H](CCc1ccc(OC)c(OC)c1)c1cccc(OCCN2CCOCC2)c1)c1cc(OC)c(OC)c(OC)c1` [Shld1], the “P. falciparum that commit to gametocytogenesis and form sexual stage parasites” value in assay [1] is reported as “over 60%”. Also, the “stabilization of FKBP destabilization domain / gametocyte production” value in assay [2] is reported as “gametocytes were produced”.
